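Step 1: Grow cells in 96-well plates. Step 2: Expose to compound for 48 hours at 5 concentrations. Step 3: Interpolate endpoints linearly; if unreached, use highest concentration. GI50: concentration for 50% inhibition of growth.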 Active and inactive are the calls of the source. Cut-off read from the data, not from the text of the source: active = GI50 up to about 1.1 µM and inactive = higher.
Experiments:
Test in all cases: NCI anticancer screen, dose series, 48 h
DU-145 = test system: DU-145
786-0 = test system: 786-0
RPMI-8226 = test system: RPMI-8226
NCI/ADR-RES = test system: NCI/ADR-RES
K562 = test system: K562
MOLT-4 = test system: MOLT-4
MCF7 = test system: MCF7
SK-MEL-5 = test system: SK-MEL-5
A549 = test system: A549
IGROV-1 = test system: IGROV-1
KM12 = test system: KM12
SNB-75 = test system: SNB-75
HL-60 = test system: HL-60
OVCAR-3 = test system: OVCAR-3
NCI-H23 = test system: NCI-H23
SN12C = test system: SN12C
TK-10 = test system: TK-10
NCI-H226 = test system: NCI-H226
HCC 2998 = test system: HCC 2998
UO-31 = test system: UO-31

Measured: GI50

Cc1cc(N2CCN(C)CC2)n2nc(-c3ccc(Cl)cc3)nc2n1
inactive: DU-145 > 100 µM | 786-0 50.7 µM | RPMI-8226 56.5 µM | NCI/ADR-RES 90.6 µM | K562 60.4 µM | MOLT-4 34.8 µM | MCF7 > 100 µM | SK-MEL-5 50.2 µM | A549 > 100 µM | IGROV-1 > 100 µM | KM12 > 100 µM | SNB-75 66.7 µM | HL-60 27.3 µM | OVCAR-3 > 100 µM | NCI-H23 > 100 µM | SN12C 54.6 µM | TK-10 68.1 µM | NCI-H226 > 100 µM

Cc1cc(C(F)(F)F)cc(-n2nc(NS(=O)(=O)c3cc(C)c(Cl)cc3S)nc2N)n1
inactive: 786-0 44.6 µM | RPMI-8226 65.8 µM | NCI/ADR-RES 30.8 µM | K562 39.7 µM | HCC 2998 34.8 µM | MOLT-4 24.3 µM | MCF7 45.1 µM | SK-MEL-5 37.1 µM | A549 36.6 µM | IGROV-1 36.6 µM | KM12 42.9 µM | SNB-75 > 100 µM | HL-60 32.8 µM | OVCAR-3 51.3 µM | SN12C 35.5 µM | TK-10 > 100 µM | NCI-H226 40.3 µM

O=C(O)C(=O)Cc1ccc2c(c1)OCO2
inactive: DU-145 > 100 µM | 786-0 > 100 µM | RPMI-8226 > 100 µM | NCI/ADR-RES > 100 µM | K562 > 100 µM | MOLT-4 83.8 µM | MCF7 > 100 µM | SK-MEL-5 > 100 µM | A549 > 100 µM | UO-31 > 100 µM | IGROV-1 > 100 µM | KM12 > 100 µM | SNB-75 > 100 µM | HL-60 > 100 µM | OVCAR-3 > 100 µM | NCI-H23 > 100 µM | SN12C > 100 µM | TK-10 > 100 µM | NCI-H226 65.5 µM

COc1ccc(C2c3cc4c(cc3OC(N3CCCCC3)C2C)OCO4)cc1 (centres undefined)
inactive: DU-145 > 100 µM | 786-0 80.2 µM | RPMI-8226 > 100 µM | NCI/ADR-RES > 100 µM | K562 > 100 µM | MOLT-4 > 100 µM | MCF7 > 100 µM | SK-MEL-5 > 100 µM | A549 85.1 µM | UO-31 85.3 µM | IGROV-1 > 100 µM | KM12 > 100 µM | SNB-75 35.6 µM | OVCAR-3 > 100 µM | NCI-H23 58.5 µM | SN12C > 100 µM | TK-10 > 100 µM

CCOC(=O)C1CCC(=O)N1C(=O)c1cccc(Cl)c1 (centres undefined)
inactive: DU-145 > 100 µM | 786-0 > 100 µM | RPMI-8226 > 100 µM | NCI/ADR-RES > 100 µM | K562 > 100 µM | MOLT-4 > 100 µM | MCF7 > 100 µM | SK-MEL-5 > 100 µM | A549 > 100 µM | UO-31 > 100 µM | IGROV-1 > 100 µM | KM12 > 100 µM | SNB-75 > 100 µM | HL-60 > 100 µM | OVCAR-3 > 100 µM | NCI-H23 > 100 µM | SN12C > 100 µM | TK-10 > 100 µM | NCI-H226 > 100 µM

C#C[C@@H](CCCC)OC(=O)N[C@H](C)c1ccccc1
inactive: 786-0 59.6 µM | RPMI-8226 23 µM | K562 31.9 µM | HCC 2998 1.96 µM | MOLT-4 27.3 µM | SK-MEL-5 20.6 µM | A549 6.82 µM | UO-31 19 µM | IGROV-1 23 µM | KM12 39.7 µM | SNB-75 33.3 µM | HL-60 15.3 µM | OVCAR-3 35.4 µM | NCI-H23 1.91 µM | SN12C 71.6 µM | TK-10 29.2 µM | NCI-H226 22.5 µM

CCCCCCCCCCCC(=O)OCCOCCOCCOCCOCCOCc1ccccc1
inactive: 786-0 > 100 µM | RPMI-8226 > 100 µM | K562 > 100 µM | HCC 2998 > 100 µM | MOLT-4 > 100 µM | SK-MEL-5 > 100 µM | A549 > 100 µM | UO-31 > 100 µM | IGROV-1 > 100 µM | KM12 > 100 µM | SNB-75 > 100 µM | HL-60 34.4 µM | OVCAR-3 > 100 µM | NCI-H23 > 100 µM | SN12C > 100 µM | TK-10 > 100 µM | NCI-H226 > 100 µM

Cc1cccc(Br)[n+]1[O-]
inactive: DU-145 > 100 µM | 786-0 > 100 µM | RPMI-8226 > 100 µM | NCI/ADR-RES > 100 µM | K562 > 100 µM | MOLT-4 > 100 µM | MCF7 > 100 µM | SK-MEL-5 > 100 µM | A549 > 100 µM | UO-31 > 100 µM | IGROV-1 > 100 µM | KM12 > 100 µM | SNB-75 > 100 µM | OVCAR-3 > 100 µM | NCI-H23 > 100 µM | SN12C 97.1 µM | TK-10 > 100 µM | NCI-H226 96.4 µM

N[C@@H](Cc1ccc2oc3cc(=O)c4ccccc4c-3nc2c1)C(=O)O
inactive: DU-145 19.5 µM | 786-0 > 100 µM | RPMI-8226 > 100 µM | NCI/ADR-RES > 100 µM | K562 > 100 µM | MOLT-4 40.7 µM | MCF7 2.36 µM | SK-MEL-5 11.7 µM | A549 40.2 µM | UO-31 > 100 µM | IGROV-1 > 100 µM | KM12 > 100 µM | SNB-75 15 µM | HL-60 > 100 µM | OVCAR-3 27.2 µM | NCI-H23 13.4 µM | SN12C 55.5 µM | TK-10 > 100 µM | NCI-H226 34 µM

Cc1c(Cl)ccc2c1NC(=O)C2(O)C(C(=O)c1ccccc1)c1ccccc1 (centres undefined)
inactive: 786-0 32.4 µM | RPMI-8226 25.9 µM | K562 31.1 µM | HCC 2998 97.9 µM | MOLT-4 22.9 µM | SK-MEL-5 23.3 µM | A549 98.2 µM | UO-31 76.6 µM | IGROV-1 > 100 µM | KM12 55.3 µM | SNB-75 46.7 µM | HL-60 13.2 µM | OVCAR-3 > 10 µM | NCI-H23 4.98 µM | SN12C 76.6 µM | TK-10 52 µM | NCI-H226 88.5 µM

CC1(C)OCC(COC(=O)C=[N+]=[N-])O1 (centres undefined)
inactive: DU-145 > 100 µM | 786-0 > 100 µM | RPMI-8226 > 100 µM | K562 > 10 µM | HCC 2998 > 100 µM | MOLT-4 > 100 µM | MCF7 46.5 µM | SK-MEL-5 > 100 µM | UO-31 > 100 µM | IGROV-1 > 100 µM | KM12 > 100 µM | HL-60 > 100 µM | OVCAR-3 > 100 µM | NCI-H23 > 100 µM | SN12C > 100 µM | TK-10 > 100 µM | NCI-H226 > 100 µM

COc1ccc2c(c1)N=C1CSC(c3cc([N+](=O)[O-])ccc3Cl)N1C2 (centres undefined)
inactive: 786-0 26.2 µM | RPMI-8226 17.4 µM | NCI/ADR-RES 23.4 µM | K562 26 µM | HCC 2998 16.6 µM | MOLT-4 22.5 µM | MCF7 14.8 µM | SK-MEL-5 40.6 µM | A549 30.9 µM | UO-31 19.6 µM | IGROV-1 34.5 µM | KM12 19 µM | SNB-75 19.2 µM | HL-60 22.5 µM | NCI-H23 22.2 µM | SN12C 16.3 µM | TK-10 21.4 µM | NCI-H226 62.8 µM

CC(C)C(=O)NC(=S)Nc1ccc([N+](=O)[O-])cc1C#N
inactive: 786-0 > 100 µM | RPMI-8226 > 100 µM | K562 > 100 µM | HCC 2998 > 100 µM | MOLT-4 > 100 µM | SK-MEL-5 > 100 µM | A549 > 100 µM | UO-31 > 100 µM | IGROV-1 > 100 µM | KM12 > 100 µM | SNB-75 16.7 µM | HL-60 > 100 µM | OVCAR-3 > 100 µM | NCI-H23 > 100 µM | SN12C 22 µM | TK-10 > 100 µM | NCI-H226 25.1 µM

CCCCCCCCCCCCCC(=O)O.O=CC(O)C(O)C(OC1OC(CO)C(O)C(O)C1O)C(O)CO (centres undefined)
inactive: DU-145 > 100 µM | 786-0 > 100 µM | RPMI-8226 19.8 µM | NCI/ADR-RES > 100 µM | K562 26.4 µM | MCF7 > 100 µM | SK-MEL-5 56.8 µM | A549 80.2 µM | UO-31 > 100 µM | IGROV-1 26.3 µM | KM12 23.2 µM | SNB-75 > 100 µM | HL-60 18.7 µM | OVCAR-3 > 100 µM | NCI-H23 > 100 µM | SN12C 80.4 µM | TK-10 37.7 µM | NCI-H226 30.5 µM

[N-]=[N+]=NC1=CC(=O)c2cccc3cccc1c23
inactive: DU-145 33.4 µM | 786-0 31.9 µM | RPMI-8226 56.6 µM | K562 26.2 µM | HCC 2998 38 µM | MOLT-4 10.7 µM | MCF7 34.2 µM | SK-MEL-5 12 µM | A549 32.4 µM | UO-31 24.9 µM | IGROV-1 15.8 µM | KM12 85.9 µM | SNB-75 13.5 µM | HL-60 > 100 µM | OVCAR-3 31.7 µM | NCI-H23 20.7 µM | SN12C 43.3 µM | TK-10 44.4 µM

Cc1ccn2c(CCc3nnc4cc(C)ccn34)nnc2c1
inactive: DU-145 > 100 µM | 786-0 > 100 µM | RPMI-8226 > 100 µM | NCI/ADR-RES > 100 µM | MOLT-4 > 100 µM | MCF7 > 100 µM | SK-MEL-5 > 100 µM | A549 > 100 µM | UO-31 > 100 µM | IGROV-1 > 100 µM | KM12 > 100 µM | SNB-75 > 100 µM | OVCAR-3 > 100 µM | NCI-H23 > 100 µM | SN12C > 100 µM | TK-10 > 100 µM | NCI-H226 > 100 µM
active: HL-60 0.129 µM
